Common to all, as to assay type: functional, cell-based
The subject of one assay is U-266. In words: Antiproliferative activity against human U-266 cells incubated for 48 hrs by MTS assay. The conditions noted are these: U-266, 48 h. For orientation: Tetrazolium dyes change colour on reduction, which living cells bring about.
The test system of a further assay is K562. Briefly: Antiproliferative activity against human K562 cells incubated for 48 hrs by MTS assay. The conditions noted are these: K562, 48 h.
In a further assay the test system is OCI-AML2. Briefly: Antiproliferative activity against human OCI-AML2 cells incubated for 48 hrs by MTS assay. The conditions noted are these: OCI-AML2, 48 h.
In a further assay the test system is U-937. Briefly: Antiproliferative activity against human U-937 cells incubated for 48 hrs by MTS assay. The conditions noted are these: U-937, 48 h.

Where only a bound is given, the exact number is not on record here.

On to `Cc1nc2c(C)cccc2cc1C(=O)N/N=C/c1ccccc1Cl`, for which the IC50 with U-266 is 3.93 µM; in the assay on K562, more than 40 µM; with OCI-AML2 it was 2.66 µM; in the assay with U-937 it was 6.89 µM.

For `Cc1nc2ccccc2cc1C(=O)N/N=C/c1ccccn1`, the IC50 with U-266, with K562, in the assay with OCI-AML2 and in the assay with U-937 was more than 40 µM in each case.

With `CC(C)=NNC(=O)c1cc2cccc(C)c2nc1C`, the IC50 in the assay on U-266, in the assay on K562, in the assay on OCI-AML2 and in the assay on U-937 was more than 40 µM in each case.

Consider `Cc1ccc2nc(C)c(C(=O)N/N=C/c3cccnc3)cc2c1`, for which the concentration for half-maximal inhibition (IC50) in the assay with U-266, in the assay on K562, in the assay with OCI-AML2 and in the assay on U-937 was more than 40 µM throughout.

In the case of `Cc1nc2c(C)cccc2cc1C(=O)N/N=C/c1cccc(Cl)c1`, the IC50 in the assay with U-266 came to 3.1 µM; in the assay on K562, 9.92 µM; in the assay on OCI-AML2 it was 2.49 µM; in the assay with U-937, 4.31 µM.

`Cc1nc2c(C)cccc2cc1C(=O)N/N=C/c1cccc([N+](=O)[O-])c1`: the IC50 was determined as 7.13 µM with U-266, 12.8 µM in the assay with K562, 2.68 µM in the assay on OCI-AML2 and 9.9 µM in the assay on U-937.

As to `Cc1nc2c(C)cccc2cc1C(=O)N/N=C/c1ccccc1`, the IC50 was 10.1 µM in the assay with U-266, 37.6 µM in the assay with K562, 11 µM with OCI-AML2 and 16.4 µM in the assay with U-937.

As to `Cc1ccc2nc(C)c(C(=O)N/N=C/c3cccc(Cl)c3)cc2c1`, the half-inhibitory concentration (IC50) in the assay with U-266, with K562, in the assay on OCI-AML2 and with U-937 was more than 40 µM throughout.

Take `Cc1nc2ccccc2cc1C(=O)N/N=C/c1ccccc1O`: the IC50 with U-266 was 6.75 µM; in the assay on K562 it was more than 40 µM; in the assay on OCI-AML2, 8.98 µM; in the assay with U-937, 6.53 µM.

A word on the IC50: it is the concentration needed to halve the response being measured. A lower IC50 goes with greater potency.

Source of the values: ChEMBL document CHEMBL5523720, “Identification of novel GSPT1 degraders by virtual screening and bioassay” (Eur J Med Chem, 2024).
